Measured values as given in patent US20060194853A1, “Alkyl benzamides” (priority 2004, published 2006).

Legend:
Type in all cases: cell-based
[1] = test system: Trichomonas vaginalis UCH-1; test: in vitro growth inhibition of Trichomonas vaginalis; details: for IC50: in vitro, concentration required to inhibit 50% of the growth of the organisms; for effective against T. vaginalis: result in words
[2] = test system: Giardia intestinalis JKH-1; test: in vitro growth inhibition of Giardia intestinalis; details: for IC50: Giardia duodenalis, in vitro, concentration required to inhibit 50% of the growth of the organisms; for effective against G. intestinalis: result in words
Helicobacter pylori = test: activity against Helicobacter pylori; details: result in words
Campylobacter jejuni = test: activity against Campylobacter jejuni; details: result in words
Influenza B = test: activity against Influenza B; details: result in words
P. falciparum = test: activity against P. falciparum; details: result in words
Influenza A = test: activity against Influenza A; details: result in words
Herpes Varicella A = test: activity against Herpes Varicella (VZV); details: result in words

CC(=O)Oc1ccccc1C(=O)Nc1ncc([N+](=O)[O-])s1 [Compound B, 2-acetyloxy-N-(5-nitro-2-thiazolyl)benzamide, reference compound]
IC50 ([1]; Trichomonas vaginalis, UCH1): 0.605 µM | IC50 [2]: 12.5 µM

CC(=O)Oc1ccc(C)cc1C(=O)Nc1ncc([N+](=O)[O-])s1 [Compound H, 2-acetyloxy-5-methyl-N-(5-nitro-2-thiazolyl) benzamide]
effective against T. vaginalis [1]: effective | effective against G. intestinalis [2]: effective

CC(=O)Oc1c(C)cccc1C(=O)Nc1ncc([N+](=O)[O-])s1 [Compound D, 2-acetyloxy-3-methyl-N-(5-nitro-2-thiazolyl) benzamide]
effective against H. Pylori (Helicobacter pylori): effective | effective against C. jejuni (Campylobacter jejuni): effective | effective against Influenza B (Influenza B): effective | effective against P. falciparum (P. falciparum): effective | IC50 ([1]; Trichomonas vaginalis, UCH1): 8.04 µM | effective against T. vaginalis [1]: effective | effective against Influenza A (Influenza A): effective | effective against Herpes VZV (Herpes Varicella A): effective | IC50 [2]: 0.56 µM | potency against Giardia intestinalis compared to nitazoxanide ([2]; comparison in words, from TABLE I): significantly more potent than nitazoxanide | effective against G. intestinalis [2]: effective

O=C(Nc1ncc([N+](=O)[O-])s1)c1ccccc1O [Compound A, 2-hydroxy-N-(5-nitro-2-thiazolyl) benzamide, reference compound]
IC50 [1]: 1.52 µM

CC(=O)Oc1cc(C)ccc1C(=O)Nc1ncc([N+](=O)[O-])s1 [Compound F, 2-acetyloxy-4-methyl-N-(5-nitro-2-thiazolyl) benzamide]
effective against T. vaginalis [1]: effective | effective against G. intestinalis [2]: effective
